The target of one assay is T1, Rat liver microsomal squalene synthetase (Rattus norvegicus, UniProt Q02769).
T1 construct: Rat liver microsome, the source of enzyme; from tissue; host or cells: rat liver microsomes
T1 sequence (Q02769 1-416): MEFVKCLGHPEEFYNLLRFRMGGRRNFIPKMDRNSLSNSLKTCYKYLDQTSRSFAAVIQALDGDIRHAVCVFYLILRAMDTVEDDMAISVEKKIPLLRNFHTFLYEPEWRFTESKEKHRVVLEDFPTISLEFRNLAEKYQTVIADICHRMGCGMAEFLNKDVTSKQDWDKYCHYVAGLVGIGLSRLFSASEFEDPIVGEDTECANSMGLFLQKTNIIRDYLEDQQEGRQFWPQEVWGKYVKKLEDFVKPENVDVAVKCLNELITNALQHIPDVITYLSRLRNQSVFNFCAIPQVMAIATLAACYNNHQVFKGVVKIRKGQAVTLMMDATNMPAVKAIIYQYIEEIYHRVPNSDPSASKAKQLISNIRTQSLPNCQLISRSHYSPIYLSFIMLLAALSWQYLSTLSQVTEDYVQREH
As to the kind of experiment: In vitro inhibition of squalene synthetase. Format: biochemical. Conditions: 10 µM test compound; rat liver microsomes, labelled farnesyl pyrophosphate, 10 minutes at 37 °C; compared to controls with no test compound. Here is the method: In vitro inhibition of squalene synthetase may be measured by the following procedure. Rat liver microsomal squalene synthetase activity was measured using farnesyl pyrophosphate as a substrate and quantitating squalene synthesis using labelled farnesyl pyrophosphate and counting the squalene formed. Rat liver microsome, the source of enzyme, was prepared according to the method of Gillies, P. J., et al., Exp. Molc. Pathol. 44: 329-339 (1986), a modification of the procedure of Erickson, S. K., and Cooper, A. D., Metabolism, 29: 991-996 (1980). […] Oxygen was excluded from the closed incubation tube by degassing with nitrogen. The reaction was terminated by the addition of ethanolic KOH and after degassing with N2, the microsomal membranes were solubilized by heating at 60 °C for 30 minutes. The squalene was extracted into hexane, and the squalene was separated from all other radioactive molecules by passage over an activated alumina column. […] The per cent inhibition at a dose of 10 µM (or 1 µM) compared to controls with no test compound was determined. […]
(In general: Liver microsomes are vesicles of endoplasmic reticulum, rich in cytochrome P450 enzymes.)
The inhibition is the drop in the measured response relative to a control, in per cent. A low value points to a weak effect. For `CCCN(Cc1ccc(Oc2ccccc2)s1)C(=O)C1C(C(=O)O)C(C(=O)O)C1C(=O)N(CCC)Cc1ccc(Oc2ccccc2)s1` (stereo not drawn) [Example 83B, (1α,2β,3β,4α)-1,2-Di[N-propyl-N-(5-phenoxythien-2-ylmethyl)aminocarbonyl]cyclobutane-3,4-dicarboxylic acid], testing at 10 µM gave an inhibition of 85%.
The compound `CCCN(Cc1ccc(Oc2ccccc2)cc1)C(=O)C1C(C=NO)C(C(=O)O)C1C(=O)N(CCC)Cc1ccc(Oc2ccccc2)cc1` (stereo not drawn) [Example 71C, (1α,2β,3β,4α)-1,2-Di[N-propyl-N-(4-phenoxybenzyl)aminocarbonyl]-4-[(hydroxyimino)methyl]-cyclobutane-3-carboxylic acid] yielded an inhibition at 10 µM of 77%.
Regarding `CCCN(Cc1ccc(Oc2ccccc2)cc1)C(=O)[C@@H]1[C@H](C(=O)C=[N+]=[N-])[C@@H](C(=O)C=[N+]=[N-])[C@H]1C(=O)N(CCC)Cc1ccc(Oc2ccccc2)cc1` (relative stereo) [Example 102, (1α,2β,3β,4α)-3,4-Bis(diazoacetyl)-1,2-di[N-propyl-N-(4-phenoxybenzyl)aminocarbonyl]cyclobutane], at 10 µM the inhibition was 58%.
Regarding `O=C(O)[C@H]1[C@H](C(=O)O)[C@H](C(=O)OCc2ccc(Oc3ccccc3)cc2)[C@H]1C(=O)OCc1ccc(Oc2ccccc2)cc1` [Example 65B, (1α,2β,3β,4α)-1,2-Di-(4-phenoxybenzyloxycarbonyl)-3,4-dicarboxylic acid], the inhibition at 10 µM was 58%.
On the same count and under the same terms, the same measure for `O=C(O)C1C(C(=O)O)C(C(=O)N(Cc2ccccc2)Cc2ccc(Cl)cc2)C1C(=O)N(Cc1ccccc1)Cc1ccc(Cl)cc1` (stereo not drawn) [Example 122B, (1α,2β,3β,4α)-1,2-Di[N-benzyl-N-(4-chlorobenzyl)aminocarbonyl]cyclobutane-3,4-dicarboxylic acid]: 57%; for `O=C(O)[C@H]1[C@H](C(=O)O)[C@H](C(=O)N(CCCc2ccccc2)Cc2ccc(Oc3ccccc3)cc2)[C@H]1C(=O)N(CCCc1ccccc1)Cc1ccc(Oc2ccccc2)cc1` [Example 57, (1α,2β,3β,4α)-1,2-Di[N-(4-phenoxybenzyl)-N-(3-phenyl-1-propyl)aminocarbonyl]cyclobutane-3,4-dicarboxylic acid]: 64%; for `CN(Cc1ccc(Oc2ccccc2)cc1)C(=O)NC1C(NC(=O)N(C)Cc2ccc(Oc3ccccc3)cc2)C(C(=O)O)C1C(=O)O` (stereo not drawn) [Example 120, (1α,2β,3β,4α)-1,2-Di[N-methyl-N-(4-phenoxybenzyl)aminocarbonylamino]cyclobutane-3,4-dicarboxylic acid]: 54%.
For the compound `O=C(O)[C@H]1[C@H](C(=O)O)[C@H](C(=O)N(CC=CC=Cc2ccccc2)Cc2ccccc2)[C@H]1C(=O)N(CC=CC=Cc1ccccc1)Cc1ccccc1` [Example 36, (1α,2β,3β,4α)-1,2-Di[N-benzyl-N-(5-phenyl-2,4-pentadienyl)aminocarbonyl]cyclobutane-3,4-dicarboxylic acid], the inhibition at 10 µM was determined as 63%.
Compound `C[C@@H](c1ccccc1)N(Cc1ccc(Oc2ccccc2)cc1)C(=O)[C@H]1[C@@H](C(=O)O)[C@H](C(=O)O)[C@@H]1C(=O)N(Cc1ccc(Oc2ccccc2)cc1)[C@@H](C)c1ccccc1` [Example 34] showed an inhibition at 10 µM of 89%.
Same read-out and setting: the same measure for `CN(Cc1cccc(Oc2ccccc2)c1)C(=O)[C@H]1[C@@H](C(=O)O)[C@H](C(=O)O)[C@@H]1C(=O)N(C)Cc1cccc(Oc2ccccc2)c1` [Example 18, (1α,2β,3β,4α)-1,2-Di[N-methyl-N-(3-phenoxybenzyl)aminocarbonyl]cyclobutane-3,4-dicarboxylic acid]: 55%; for `CCCN(Cc1ccc(Oc2ccccc2)cc1)C(=O)[C@@H]1[C@H](C(=O)O)[C@@H](C(=O)OC)[C@H]1C(=O)N(CCC)Cc1ccc(Oc2ccccc2)cc1` (relative stereo) [Example 95, (1α,2β,3β,4α)-1,2-Di[N-propyl-N-(4-phenoxybenzyl)aminocarbonyl]-3-(methoxycarbonyl)cyclobutane-4-carboxylic Acid]: 78%.

The same assay, now with this note: values marked * in Table 1: 1 µM test compound; rat liver microsomes, labelled farnesyl pyrophosphate, 10 minutes at 37 °C.
For `CCCN(Cc1ccc(Oc2ccccc2)cc1)C(=O)C1C(C(=O)O)C(C(=O)N2CCCC2C(=O)O)C1C(=O)N(CCC)Cc1ccc(Oc2ccccc2)cc1` (stereo not drawn) [Example 107, (1α,2β,3β,4α)-1,2-Di[N-propyl-N-(4-phenoxybenzyl)aminocarbonyl]cyclobutane-3,4-dicarboxylic acid mono-d,l-Proline amide], the inhibition at 1 µM amounted to 75%.
Same read-out and setting: the same measure for `CSCCN(Cc1ccc(Oc2ccccc2)cc1)C(=O)C1C(C(=O)O)C(C(=O)O)C1C(=O)N(CCSC)Cc1ccc(Oc2ccccc2)cc1` (stereo not drawn) [Example 41B, (1α,2β,3β,4α)-1,2-Di[N-(2-methylthioethyl)-N-(4-phenoxybenzyl)aminocarbonyl]cyclobutane-3,4-dicarboxylic acid]: 72%; for `CCCN(Cc1ccc(Oc2ccccc2)cc1)C(=O)C1C(C(=O)O)C(C(=O)Nc2nnn[nH]2)C1C(=O)N(CCC)Cc1ccc(Oc2ccccc2)cc1` (stereo not drawn) [Example 92B, (1α,2β,3β,4a)-1,2-Di[N-propyl-N-(4-phenoxybenzyl)aminocarbonyl]cyclobutane-3-[N-(5-tetrazolyl)]carboxamide-4-carboxylic acid]: 80%; for `CCCN(Cc1ccc(Oc2ccccc2)cc1)C(=O)CC1C(CC(=O)N(CCC)Cc2ccc(Oc3ccccc3)cc2)C(C(=O)O)C1C(=O)O` (stereo not drawn) [Example 127C, (1α,2β,3β,4α)-1,2-Di-[N-propyl-N-(4-phenoxybenzyl)aminocarbonylmethyl]-cyclobutane-3,4-dicarboxylic acid]: 68%.
On the same count and under the same terms, the same measure for `CCCN(Cc1ccc(Oc2ccccc2)cc1)C(=O)C1C(NC(=O)C(=O)O)C(C(=O)O)C1C(=O)N(CCC)Cc1ccc(Oc2ccccc2)cc1` (stereo not drawn) [Example 74D]: 55%; for `CCCN(Cc1ccc(Oc2ccccc2)cc1)C(=O)C1C(C(=O)O)C(C(O)C(=O)O)C1C(=O)N(CCC)Cc1ccc(Oc2ccccc2)cc1` (stereo not drawn) [Example 78B, (1α,2β,3β,4α)-1,2-Di[N-propyl-N-(4-phenoxybenzyl)aminocarbonyl]-4-(1-carboxy-1-hydroxymethyl)cyclobutane-3-carboxylic acid]: 82%.
As for `CCCN(Cc1ccc(Oc2ccccc2)cc1)C(=O)C1C(C(=O)O)C(c2nn[nH]n2)C1C(=O)N(CCC)Cc1ccc(Oc2ccccc2)cc1` (stereo not drawn) [Example 72C], the inhibition at 1 µM came out at 51%.
Same read-out and setting: the same measure for `CCSCCN(Cc1ccc(Oc2ccccc2)cc1)C(=O)C1C(C(=O)O)C(C(=O)O)C1C(=O)N(CCSCC)Cc1ccc(Oc2ccccc2)cc1` (stereo not drawn) [Example 42, (1α,2β,3β,4α)-1,2-Di[N-(2-ethylthioethyl)-N-(4-phenoxybenzyl)aminocarbonyl]cyclobutane-3,4-dicarboxylic acid]: 81%; for `O=C(O)C1C(C(=O)O)C(C(=O)N(Cc2ccc(F)cc2)Cc2ccc(Oc3ccccc3)cc2)C1C(=O)N(Cc1ccc(F)cc1)Cc1ccc(Oc2ccccc2)cc1` (stereo not drawn) [Example 53B, (1α,2β,3β,4α)-1,2-Di[N-(4-fluorobenzyl)-N-(4-phenoxybenzyl)aminocarbonyl]cyclobutane-3.4-dicarboxylic acid]: 63%.
With “(1α,2β,3β,4α)-1,2-Di[N-propyl-N-(4-(3,4-methylenedioxyphenoxy)benzyl)aminocarbonyl]cyclobutane-3,4-carboxylic acid [Example 119C]”, the “% Inhibition at 1 µM” value is 45* %.

Source of the values: patent EP0677039B1, “CYCLOBUTANE DERIVATIVES AS INHIBITORS OF […] SYNTHETASE AND PROTEIN […]” (Abbott Laboratories, priority 1993, dated 1995).
